# Assays:
# [1] = (§1) Antiinflammatory activity in human HT-29 cells assessed as inhibition of TNF-alpha induced BCECF-AM labeled human U937 cell adhesion at 1 uM preincubated for 1 hr followed by stimulation with TNF-alpha for 3 hrs followed by further co-incubation with BCECF-AM labeled human U937 cells for 1 hr by fluorescent/light microscopic analysis; format: functional
# [2] = test system: Rattus norvegicus; assay: Antiinflammatory activity in TNBS-induced Sprague-Dawley rat colitis model assessed as inhibition of myeloperoxidase level in colon at 300 mg/kg/day, po administered for 5 days post 1 day of TNBS-challenge by colorimetric method relative to control; format: functional
# [3] = test system: Rattus norvegicus; assay: Antiinflammatory activity in TNBS-induced Sprague-Dawley rat colitis model assessed as body weight recovery at 300 mg/kg/day, po administered for 5 days post 1 day of TNBS-challenge measured daily during compound dosing relative to control; format: functional
# [4] = test system: Rattus norvegicus; assay: Antiinflammatory activity in TNBS-induced Sprague-Dawley rat colitis model assessed as colon weight recovery at 300 mg/kg/day, po administered for 5 days post 1 day of TNBS-challenge relative to control; format: functional
# [5] = test system: Rattus norvegicus; assay: Antiinflammatory activity in TNBS-induced Sprague-Dawley rat colitis model assessed as inhibition of myeloperoxidase level in colon at 10 mg/kg/day, po administered for 5 days post 1 day of TNBS-challenge by colorimetric method relative to control; format: functional
# [6] = test system: Rattus norvegicus; assay: Antiinflammatory activity in po dosed TNBS-induced Sprague-Dawley rat colitis model assessed as body weight recovery compound administered for 5 days post 1 day of TNBS-challenge measured daily during compound dosing; format: functional, organism-based
# [7] = test system: Rattus norvegicus; assay: Antiinflammatory activity in TNBS-induced Sprague-Dawley rat colitis model assessed as body weight recovery at 0.1 mg/kg/day, po administered for 5 days post 1 day of TNBS-challenge measured daily during compound dosing relative to control; format: functional
# [8] = species: Rattus norvegicus; assay: Potency index, ratio of compound efficacy to sulfasalazine efficacy in TNBS-induced Sprague-Dawley rat colitis model assessed as body weight recovery; format: functional
# [9] = test system: Rattus norvegicus; assay: Antiinflammatory activity in po dosed TNBS-induced Sprague-Dawley rat colitis model assessed as reduction in colon edema and adhesion administered for 5 days post 1 day of TNBS-challenge by microscopic analysis; format: functional, organism-based
# [10] = test system: Rattus norvegicus; assay: Antiinflammatory activity in TNBS-induced Sprague-Dawley rat colitis model assessed as body weight recovery at 1 mg/kg/day, po administered for 5 days post 1 day of TNBS-challenge measured daily during compound dosing relative to control; format: functional
# [11] = test system: Rattus norvegicus; assay: Antiinflammatory activity in po dosed TNBS-induced Sprague-Dawley rat colitis model assessed as recovery of increase in colon wet weight administered for 5 days post 1 day of TNBS-challenge; format: functional, organism-based
# [12] = test system: Rattus norvegicus; assay: Antiinflammatory activity in TNBS-induced Sprague-Dawley rat colitis model assessed as inhibition of myeloperoxidase level in colon at 0.1 mg/kg/day, po administered for 5 days post 1 day of TNBS-challenge by colorimetric method relative to control; format: functional
# [13] = test system: Rattus norvegicus; assay: Antiinflammatory activity in TNBS-induced Sprague-Dawley rat colitis model assessed as body weight recovery at 10 mg/kg/day, po administered for 5 days post 1 day of TNBS-challenge measured daily during compound dosing relative to control; format: functional
# [14] = species: Rattus norvegicus; assay: Potency index, ratio of compound efficacy to sulfasalazine efficacy in TNBS-induced Sprague-Dawley rat colitis model assessed as inhibition of MPO level in colon; format: functional
# [15] = test system: Rattus norvegicus; assay: Antiinflammatory activity in TNBS-induced Sprague-Dawley rat colitis model assessed as colon weight recovery at 1 mg/kg/day, po administered for 5 days post 1 day of TNBS-challenge relative to control; format: functional
# [16] = test system: Rattus norvegicus; assay: Antiinflammatory activity in TNBS-induced Sprague-Dawley rat colitis model assessed as inhibition of myeloperoxidase level in colon at 1 mg/kg/day, po administered for 5 days post 1 day of TNBS-challenge by colorimetric method relative to control; format: functional
# [17] = species: Rattus norvegicus; assay: Potency index, ratio of compound efficacy to sulfasalazine efficacy in TNBS-induced Sprague-Dawley rat colitis model assessed as colon weight recovery; format: functional
# [18] = test system: Rattus norvegicus; assay: Antiinflammatory activity in TNBS-induced Sprague-Dawley rat colitis model assessed as colon weight recovery at 10 mg/kg/day, po administered for 5 days post 1 day of TNBS-challenge relative to control; format: functional
# [19] = test system: Rattus norvegicus; assay: Antiinflammatory activity in TNBS-induced Sprague-Dawley rat colitis model assessed as colon weight recovery at 0.1 mg/kg/day, po administered for 5 days post 1 day of TNBS-challenge relative to control; format: functional
# [20] = as §1, with “adhesion” for “adhesion at 1 uM”; format: functional, cell-based
# [21] = as §1, with “20 mM” for “1 uM”; format: functional
Structure (SMILES),inhibition at 1 µM [1],further results
Cc1ccc(N(C)c2nc(C)c(O)c(C)c2C)cc1,67.4%,
Cc1nc(Nc2cccc(OC(C)C)c2)c(C)c(C)c1O,24.9%,
O=C(O)c1cc(/N=N/c2ccc(S(=O)(=O)Nc3ccccn3)cc2)ccc1O [SULFASALAZINE],,inhibition in vivo at 300 mg/kg/day [2]: 58.6%; Activity [3]: 55.6%; Activity [4]: 67.1%
CCCc1ccc(Nc2nc(C)c(O)c(C)c2C)cc1,77.9%,inhibition in vivo at 10 mg/kg/day [5]: 96.3%; Activity [6]: Dose-dependent effect; Activity [7]: 47.2%; Ratio [8]: >300; Activity [9]: Dose-dependent effect; Activity [10]: 58.3%; Activity [11]: Dose-dependent effect; inhibition in vivo at 0.1 mg/kg/day [12]: 55.4%; Activity [13]: 69.9%; Ratio [14]: >300; Activity [15]: 72.6%; inhibition in vivo at 1 mg/kg/day [16]: 79.9%; Ratio [17]: >300; Activity [18]: 88.6%; Activity [19]: 56.6%; IC50 [20]: 0.00019 mM
Cc1nc(N2CCC(C(O)(c3ccccc3)c3ccccc3)CC2)c(C)c(C)c1O,-7%,
Cc1nc(Nc2ccc(Br)cc2)c(C)c(C)c1O,47.2%,
Cc1nc(Nc2ccc(Oc3ccccc3)cc2)c(C)c(C)c1O,17.3%,
Cc1nc(Nc2ccc(F)cc2)c(C)c(C)c1O,71.5%,
Cc1nc(Nc2cccc(F)c2)c(C)c(C)c1O,16.3%,
Cc1nc(Nc2ccc(C(C)(C)C)cc2)c(C)c(C)c1O,27.3%,
Cc1nc(NCCCO)c(C)c(C)c1O,19%,
Cc1nc(N(C)c2ccccc2)c(C)c(C)c1O,58.1%,
Cc1nc(Nc2cccc(Br)c2)c(C)c(C)c1O,20.5%,
Cc1nc(Nc2ccccc2)c(C)c(C)c1O,73.6%,
COc1ccc(Nc2nc(C)c(O)c(C)c2C)cc1,14%,
Cc1nc(Nc2ccc([N+](=O)[O-])cc2)c(C)c(C)c1O,39%,
Cc1nc(Nc2ccc3c(c2)OCO3)c(C)c(C)c1O,26.5%,
Cc1nc(NCc2ccccc2)c(C)c(C)c1O,35.7%,
Cc1nc(-n2cccc2)c(C)c(C)c1O,56.1%,
Cc1nc(Nc2ccccc2C(C)C)c(C)c(C)c1O,37.8%,
CCCCCCCCCCc1ccc(Nc2nc(C)c(O)c(C)c2C)cc1,76.6%,
Cc1nc(Nc2cccc(Cl)c2)c(C)c(C)c1O,42.5%,
Cc1nc(N(c2ccccc2)c2ccc3ccccc3c2)c(C)c(C)c1O,13.4%,

Structure (SMILES),inhibition at 1 µM [1],further results
Cc1nc(N2CCCC2)c(C)c(C)c1O,36.7%,
Nc1ccc(O)c(C(=O)O)c1 [MESALAMINE],3.8%,inhibition at 20000 µM [21]: 52.7%; IC50 [20]: 18.1 mM
Cc1nc(NCc2ccc(-c3ccccc3)cc2)c(C)c(C)c1O,1.3%,
Cc1nc(N(c2ccccc2)c2ccccc2)c(C)c(C)c1O,41.3%,
Cc1nc(N(C)c2ccc(Cl)cc2)c(C)c(C)c1O,65.2%,
Cc1nc(NCc2ccc(C(C)(C)C)cc2)c(C)c(C)c1O,49.2%,
CCCCCCNc1nc(C)c(O)c(C)c1C,28.4%,
Cc1ccc(Nc2nc(C)c(O)c(C)c2C)cc1,84.4%,
Cc1nc(N(C)c2ccc(F)cc2)c(C)c(C)c1O,77.2%,
Cc1nc(Nc2ccc(Cl)cc2)c(C)c(C)c1O,28.4%,
Cc1nc(NC2CCCC2)c(C)c(C)c1O,73.3%,
Cc1nc(Nc2cccc([N+](=O)[O-])c2)c(C)c(C)c1O,18.5%,
CCCCCCCCCCCCCCCCNc1nc(C)c(O)c(C)c1C,26.9%,
Cc1cccc(Nc2nc(C)c(O)c(C)c2C)c1,74%,
Cc1nc(Nc2cccc3ccccc23)c(C)c(C)c1O,52.4%,
Cc1cccc(N(C)c2nc(C)c(O)c(C)c2C)c1,63.2%,
Cc1nc(N2CCCCC2)c(C)c(C)c1O,47.9%,
Cc1nc(N2CCN(C)CC2)c(C)c(C)c1O,47.6%,
Cc1nc(NC2CCCCC2)c(C)c(C)c1O,36%,
Cc1nc(N)c(C)c(C)c1O,22.9%,
Cc1nc(N2CCOCC2)c(C)c(C)c1O,67.7%,
Nc1cccc2c1CN(C1CCC(=O)NC1=O)C2=O (stereo not given) [LENALIDOMIDE],64.6%,

# Source: ChEMBL document CHEMBL3860056, “In vitro and in vivo inhibitory activity of 6-amino-2,4,5-trimethylpyridin-3-ols against inflammatory bowel disease” (Bioorg Med Chem Lett, 2016)
